# In patent publication US20250340571A1, “COMPOSITIONS USEFUL FOR MODULATING SPLICING” (Skyhawk Therapeutics, Inc., priority 2022, published 2025):
# How the values were obtained:
# [1] = tested on: ATXN3 pre-mRNA (transcripts containing exon 4); assay: ATXN3 quantitative splicing assay (qPCR, E4E5 transcripts containing exon 4); assay type: cell-based; settings: Homo sapiens; SK-N-MC cells, 24 h treatment, qPCR E4E5 primers/probe
# Procedure: Human neuroblastoma SK-N-MC cells were plated in 384-well plates at 20,000 cells/well. Twenty-four hours after plating, cells were treated with compounds for 24 h at appropriate concentrations ranging from 30 μM to 0.6 nM (0.3% DMSO). Treated cells were lysed in 15 μL of lysis buffer, and cDNA was synthesized using the Fast Advanced Cells-to-Ct kit. Two μL of each cDNA was used in qPCR reactions to confirm the exon 4 skipped transcripts of ATXN3. A second set of primers/probe E4E5 was used to detect the transcripts containing exon 4. The third set of primers/probe E8E9 was used to detect total gene level of ATXN3. The qPCR reactions were prepared in 384-well plates in 10 μL volume, using TaqMan™ Fast Advanced Master Mix with primers and probes shown in the table below. Reactions were run in a Quant Studio 6 qPCR instrument with default settings.
# The primers and probes are listed below in Table 5.
# total ATXN3 protein = assay: ATXN3 total protein assay (MSD); assay type: cell-based, human; settings: SK-N-MC cells, 48 h incubation
# Procedure: Human neuroblastoma SK-N-MC cells were seeded at 10,000 cells/well in 384 well plates one day prior to compound treatment. The concentrations of compounds were tested at appropriate doses ranging from 30 μM to 0.6 nM. After incubation for 48 hours, the cells were lysed with 25 μL of lysis buffer containing protease inhibitors, and total ATXN3 protein levels were assessed by Mesoscale Discovery (MSD) assay developed with one pair of anti-ATXN3 antibodies. The capture and detect antibodies were raised in mouse and rabbit respectively. Anti-rabbit MSD-ST antibody was used for secondary antibody.
# ATXN3 recombinant protein was used for standards. The readouts were captured with 35 μL of MSD read buffer and multi-array 384-well high binding plates.
SMILES,IC50 [1] [nM],IC50 (total ATXN3 protein) [nM]
"C#Cc1c(C[C@@H](N)CO)sc2c(NCc3ccco3)snc12 [Compound 13, (R)-2-amino-3-{8-ethynyl-4-(furfurylamino)-3,6-dithia-2-azabicyclo[3.3.0]octa-1,4,7-trien-7-yl}-1-propanol]",0.01 to 100,0.01 to 100
"C#Cc1c(C[C@@H](N)CC2CC2)sc2c(NCc3cccs3)snc12 [Compound 33, 7-[(S)-2-amino-3-cyclopropylpropyl]-8-ethynyl-4-thenylamino-3,6-dithia-2-azabicyclo[3.3.0]octa-1,4,7-triene]",501 to 5000,501 to 5000
"C#Cc1c(C[C@@H](N)COC)sc2c(NCc3cccs3)snc12 [Compound 15, 7-[(R)-2-amino-3-methoxypropyl]-8-ethynyl-4-thenylamino-3,6-dithia-2-azabicyclo[3.3.0]octa-1,4,7-triene]",501 to 5000,501 to 5000
"C[C@H](N)Cc1sc2c(NCc3cccs3)snc2c1-c1ccncc1 [Compound 5, 7-[(S)-2-aminopropyl]-8-(4-pyridyl)-4-thenylamino-3,6-dithia-2-azabicyclo[3.3.0]octa-1,4,7-triene]",10000 to 40000,10000 to 40000
"C#Cc1c(C[C@@H](N)COC2CC2)sc2c(NCc3cccs3)snc12 [Compound 34, 7-[(R)-2-amino-3-cyclopropoxypropyl]-8-ethynyl-4-thenylamino-3,6-dithia-2-azabicyclo[3.3.0]octa-1,4,7-triene]",501 to 5000,501 to 5000
"C[C@H](N)Cc1sc2c(NCc3ccco3)snc2c1-c1cccnc1 [Compound 12, 7-[(S)-2-aminopropyl]-4-(furfurylamino)-8-(3-pyridyl)-3,6-dithia-2-azabicyclo[3.3.0]octa-1,4,7-triene]",10000 to 40000,10000 to 40000
"C#Cc1c(C[C@@H](N)[C@@H](C)F)sc2c(NCc3ccco3)snc12 [Compound 24, 7-[(2R,3R)-2-amino-3-fluorobutyl]-8-ethynyl-4-(furfurylamino)-3,6-dithia-2-azabicyclo[3.3.0]octa-1,4,7-triene]",101 to 500,501 to 5000
"C#Cc1c(C[C@@H](N)[C@H](C)F)sc2c(NCc3ccco3)snc12 [Compound 25, 7-[(2R,3S)-2-amino-3-fluorobutyl]-8-ethynyl-4-(furfurylamino)-3,6-dithia-2-azabicyclo[3.3.0]octa-1,4,7-triene]",101 to 500,101 to 500
"C#Cc1c(C(F)(F)[C@H](C)N)sc2c(NCc3cccs3)snc12 [Compound 35, 7-[(S)-2-amino-1,1-difluoropropyl]-8-ethynyl-4-thenylamino-3,6-dithia-2-azabicyclo[3.3.0]octa-1,4,7-triene]",501 to 5000,501 to 5000
"C#Cc1c(C[C@@H](N)[C@H](C)F)sc2c(NCc3cccs3)snc12 [Compound 19, 5-[(2R,3S)-2-amino-3-fluorobutyl]-6-ethynyl-N-(thiophen-2-ylmethyl)thieno[3,2-c][1,2]thiazol-3-amine]",101 to 500,101 to 500
"C#Cc1c(C[C@@H](N)CF)sc2c(NCc3cccs3)snc12 [Compound 17, 7-[(R)-2-amino-3-fluoropropyl]-8-ethynyl-4-thenylamino-3,6-dithia-2-azabicyclo[3.3.0]octa-1,4,7-triene]",101 to 500,501 to 5000
"C#Cc1c(C[C@@H](N)CF)sc2c(NCc3ccco3)snc12 [Compound 23, 7-[(R)-2-amino-3-fluoropropyl]-8-ethynyl-4-(furfurylamino)-3,6-dithia-2-azabicyclo[3.3.0]octa-1,4,7-triene]",101 to 500,501 to 5000
"C[C@H](N)Cc1sc2c(NCc3cccs3)snc2c1-c1ncco1 [Compound 40, 7-[(S)-2-aminopropyl]-8-(1,3-oxazol-2-yl)-4-thenylamino-3,6-dithia-2-azabicyclo[3.3.0]octa-1,4,7-triene]",501 to 5000,501 to 5000
"C#Cc1c(C[C@@H](N)COC)sc2c(NCc3ccccc3)snc12 [Compound 30, 7-[(R)-2-amino-3-methoxypropyl]-4-benzylamino-8-ethynyl-3,6-dithia-2-azabicyclo[3.3.0]octa-1,4,7-triene]",10000 to 40000,10000 to 40000
"C#Cc1c(C[C@H](C)N)sc2c(NCc3cccs3)snc12 [Compound 4, 5-[(2S)-2-aminopropyl]-6-ethynyl-N-(thiophen-2-ylmethyl)thieno[3,2-c][1,2]thiazol-3-amine]",101 to 500,101 to 500
"C[C@H](N)Cc1sc2c(NCc3cccs3)snc2c1-n1cccn1 [Compound 3, 7-[(S)-2-aminopropyl]-8-(1-pyrazolyl)-4-thenylamino-3,6-dithia-2-azabicyclo[3.3.0]octa-1,4,7-triene]",10000 to 40000,10000 to 40000
"C[C@H](N)Cc1sc2c(NCc3cccs3)snc2c1-n1ccnc1 [Compound 8, 5-[(2S)-2-aminopropyl]-6-(imidazol-1-yl)-N-(thiophen-2-ylmethyl)thieno[3,2-c][1,2]thiazol-3-amine]",10000 to 40000,10000 to 40000
"C[C@H](F)[C@H](N)Cc1sc2c(NCc3cccs3)snc2c1-c1ncco1 [Compound 41, 7-[(2R,3S)-2-amino-3-fluorobutyl]-8-(1,3-oxazol-2-yl)-4-thenylamino-3,6-dithia-2-azabicyclo[3.3.0]octa-1,4,7-triene]",501 to 5000,501 to 5000
"C[C@H](N)Cc1sc2c(NCc3cccs3)snc2c1-c1ccccn1 [Compound 7, 5-[(2S)-2-aminopropyl]-6-(pyridin-2-yl)-N-(thiophen-2-ylmethyl)thieno[3,2-c][1,2]thiazol-3-amine]",10000 to 40000,10000 to 40000
"C#Cc1c(C[C@@H](N)CO)sc2c(NCc3cccs3)snc12 [Compound 16, (R)-2-amino-3-(8-ethynyl-4-thenylamino-3,6-dithia-2-azabicyclo[3.3.0]octa-1,4,7-trien-7-yl)-1-propanol]",0.01 to 100,0.01 to 100
"C#Cc1c(C[C@@H](N)COC)sc2c(NCc3ccco3)snc12 [Compound 14, 7-[(R)-2-amino-3-methoxypropyl]-8-ethynyl-4-(furfurylamino)-3,6-dithia-2-azabicyclo[3.3.0]octa-1,4,7-triene]",501 to 5000,501 to 5000
"C#Cc1c(C[C@@H](N)C(F)F)sc2c(NCc3ccco3)snc12 [Compound 37, 7-[(R)-2-amino-3,3-difluoropropyl]-8-ethynyl-4-(furfurylamino)-3,6-dithia-2-azabicyclo[3.3.0]octa-1,4,7-triene]",501 to 5000,501 to 5000
"C#Cc1c(C[C@@H](N)[C@H](C)F)sc2c(NCc3nccs3)snc12 [Compound 22, 7-[(2R,3S)-2-amino-3-fluorobutyl]-8-ethynyl-4-{[(1,3-thiazol-2-yl)methyl]amino}-3,6-dithia-2-azabicyclo[3.3.0]octa-1,4,7-triene]",101 to 500,0.01 to 100
"C#Cc1c(C[C@H](C)N)sc2c(NCc3ccco3)snc12 [Compound 11, 7-[(S)-2-aminopropyl]-8-ethynyl-4-(furfurylamino)-3,6-dithia-2-azabicyclo[3.3.0]octa-1,4,7-triene]",0.01 to 100,0.01 to 100
"C#Cc1c(C[C@@H](N)CC2CC2)sc2c(NCc3ccco3)snc12 [Compound 32, 7-[(S)-2-amino-3-cyclopropylpropyl]-8-ethynyl-4-(furfurylamino)-3,6-dithia-2-azabicyclo[3.3.0]octa-1,4,7-triene]",101 to 500,101 to 500
"C[C@H](N)Cc1sc2c(NCc3ccco3)snc2c1-c1ccncc1 [Compound 10, 7-[(S)-2-aminopropyl]-4-(furfurylamino)-8-(4-pyridyl)-3,6-dithia-2-azabicyclo[3.3.0]octa-1,4,7-triene]",10000 to 40000,10000 to 40000
"C[C@H](N)Cc1sc2c(NCc3cccs3)snc2c1-c1cccnc1 [Compound 6, 7-[(S)-2-aminopropyl]-8-(3-pyridyl)-4-thenylamino-3,6-dithia-2-azabicyclo[3.3.0]octa-1,4,7-triene]",10000 to 40000,10000 to 40000
